Activity calls are given as the source filed them.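 Rule for the calls: active = mean IC50 at or below a set limit; inactive = the rest.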
Test system: 697 B-cell NF-kB luciferase reporter, PMA/ionomycin, 16 h
Test: inhibitors of antigen receptor-driven NF-kB, dose response, 697 B cells, PMA/ionomycin, luminescence (AID 489034)

Structure (SMILES)	IC50
O=C(CN1C(=O)c2ccccc2S1(=O)=O)c1ccc2c(c1)OCCO2	< 160 nM
C=C1C(=O)O[C@@H]2C[C@@H](C)[C@@H]3C=CC(=O)[C@@]3(C)[C@@H](OC(C)=O)[C@H]12	> 80000 nM (inactive)
O=C(Nc1ccc(Cl)cc1)Nc1cccc(C(=O)O)c1	2220 nM
CCOc1cc(S(=O)(=O)NCc2ccncc2)ccc1Cl	> 80000 nM (inactive)
CCC(C)(C)c1ccc(OCCCC[n+]2ccc(C)cc2)c(C(C)(C)CC)c1	22300 nM (inactive)
CCCCCc1ccc(OCCCC[n+]2cccc(C)c2)c(CCCCC)c1	> 80000 nM (inactive)
c1ccc2sc(Sc3ncnc4sccc34)nc2c1	197 nM
CCOc1ccc(S(=O)(=O)NCc2ccncc2)cc1	> 80000 nM (inactive)
COc1ccc(NS(=O)(=O)c2cccc(NC(=O)c3ccc(Cl)nc3)c2)cc1	70300 nM (inactive)
CCCCCCn1ccc(=N)cc1	> 80000 nM (inactive)
O=C(NCCc1ccccc1F)c1ccc2c(c1)OCCO2	675 nM
Cc1sc2ncnc(N3CCN(CCOc4ccc(Cl)cc4)CC3)c2c1C	> 80000 nM (inactive)
CCOc1ccc(NC(=O)Nc2cccc(C(=O)O)c2)cc1	504 nM
Cn1nccc1C(=O)NC1CCCc2c1cnn2-c1ccc(F)cc1F (centres undefined)	> 80000 nM (inactive)
NC1=NC[C@H](Cc2ccc(O)cc2)N1CCCCC1CCCCC1	> 80000 nM (inactive)
COc1ccc(-c2cc3nc(C)n(N)c(=O)c3s2)cc1	673 nM
O=C(Nc1cccc(C(=O)O)c1)Nc1ccc2c(c1)OCO2	1140 nM
CCCCCCCCCCOC(=O)Cn1c(COc2ccccc2OC)[n+](C)c2ccccc21	> 80000 nM (inactive)
CC(C)Cc1cc(C(C)(C)C)ccc1OC(=S)N(C)C	> 80000 nM (inactive)
Cc1ccc(-c2csc(NC(=O)C3CCN(S(=O)(=O)c4cccs4)CC3)n2)cc1	> 80000 nM (inactive)
CCN1/C(=C/c2ccc3cc(C)ccc3[n+]2CC)Sc2ccccc21	> 80000 nM (inactive)
COc1ccc(-c2nc(-c3ccccn3)no2)cc1	872 nM
Cc1cc(NNC(=O)Nc2cccc(Cl)c2)nc2c1c(C)nn2C	> 80000 nM (inactive)
COc1cccc2c1C(=O)c1c(O)c3c(c(O)c1C2=O)C[C@@](O)(C(=O)CO)C[C@@H]3O[C@H]1C[C@H](N)[C@@H](O)[C@H](C)O1	3530 nM
Cc1cc2sc3ccc(C#CC4(O)CCCCC4)cc3c(=O)c2cc1C	< 160 nM

Structure (SMILES)	IC50
Cc1cc([N+](=O)[O-])nn1Cc1ccccc1F	> 80000 nM (inactive)
Cn1nccc1C(=O)NC1CCCc2c1cnn2-c1ccccc1F (centres undefined)	56300 nM (inactive)
CCCCC[n+]1cccc2c3ccccc3ccc21	> 80000 nM (inactive)
C[C@@H]1O[C@@H](O[C@@H]2C=C3CC[C@@H]4C(CC[C@]5(C)[C@@H](c6ccc(=O)oc6)CC[C@]45O)[C@@]3(C)CC2)[C@H](O)[C@H](O)[C@H]1O (some centres undefined)	< 160 nM
O=C1/C(=C/c2ccccc2)C[C@@]2(O)[C@H]3Cc4ccc(O)c5c4[C@@]2(CCN3CC2CC2)C1O5 (some centres undefined)	6200 nM
Cc1cc(CSc2ccccc2)ccc1NC(=O)c1ccc(CN2CCOCC2)cc1	> 80000 nM (inactive)
CCCCCn1c(=O)[nH]c2cc(C(=O)N3CCN(Cc4ccc5c(c4)OCO5)CC3)ccc2c1=O	> 80000 nM (inactive)
Cc1nn(C(C)(C)C)c(C)c1/C=N/OC(=O)Nc1ccc(Cl)cc1	< 160 nM
COc1ccc(CCNc2ncnc3sc(C)cc23)cc1OC	33400 nM (inactive)
Nc1nc(Cl)nc2c1ncn2[C@H]1C[C@H](O)[C@@H](CO)O1	5060 nM
COc1cc(NC(C)CCCN)c2ncccc2c1 (centres undefined)	> 80000 nM (inactive)
Nc1nc(F)nc2c1ncn2[C@@H]1O[C@H](CO)[C@@H](O)[C@H]1O	1370 nM
CCN1/C(=C\c2ccc3ccccc3[n+]2CC)Sc2cc(C)ccc21	> 80000 nM (inactive)
CN=c1scc(-c2ccccc2F)n1/N=C/c1ccc[nH]1	702 nM
COc1ccc(C[C@H]2NC[C@H](O)[C@H]2OC(C)=O)cc1	< 160 nM
C=C1C(O)[C@@H]2O[C@]3(CC[C@H](/C=C/C(C)[C@@H]4CC(C)=CC5(O[C@H](C[C@@](C)(O)C(=O)O)CCC5O)O4)O3)CC[C@H]2O[C@@H]1C(O)CC(C)[C@H]1OC2(CCCCO2)CCC1C (some centres undefined)	< 160 nM
C=CC(=O)Nc1ccc(Nc2nc(NC3CCC(N(C)C)CC3)nc3c2ncn3C(C)C)cc1 (centres undefined)	593 nM
COc1cc(SC)ccc1C(=O)Nc1nc2ccccc2[nH]1	< 160 nM
COc1cc([N+](=O)[O-])cc(/C=N/NC(=O)c2ccc(NC(=O)c3ccc(C)cc3)cc2)c1O	1020 nM
CC[n+]1c(C=C2C=C(C)OC(C)=C2)sc2ccccc21	> 80000 nM (inactive)
COC(=O)Cc1ccc(NC(=O)c2ccc(C(C)(C)C)cc2)cc1	< 160 nM
CCOc1ccc(/C=C2\SC(=S)N(CCC(=O)O)C2=O)cc1	211 nM
O=C(c1ccc(Br)cc1)c1cc([N+](=O)[O-])ccc1N1CCCCC1	> 80000 nM (inactive)
O=C(Nc1nc(-c2ccc(F)c(F)c2)cs1)c1ccc(OCC2CCCO2)cc1 (centres undefined)	> 80000 nM (inactive)
COc1ccc(C(=O)CN2C(=O)c3ccccc3S2(=O)=O)cc1	691 nM

Structure (SMILES)	IC50
COc1ccc(-c2c[n+]3c(n2-c2ccc(C)cc2)CCCCC3)cc1	> 80000 nM (inactive)
COc1ccc(/C=C2\SC(=O)N(CCCC(=O)Nc3cc(Cl)ccc3C(=O)O)C2=O)cc1	331 nM
COc1ccc(CCNc2c(C)c(C)nc3ncnn23)cc1	> 80000 nM (inactive)
Cc1ccnc(NC(=O)CCCOc2cc(=O)n(C)c3ccccc23)c1	8540 nM
c1ccc(-c2ccc(-c3nc(-c4ccccn4)no3)cc2)cc1	967 nM
CC(C)(C)c1ccc(C(=O)N2CCCCCC2=O)cc1	579 nM
COCCn1c(C)cc(C2=NNC(=NC3CC3)SC2)c1C	< 160 nM
C[C@H](NC(=O)c1nc[nH]c1C(=O)N[C@@H](C)C(=O)OCc1ccccc1)C(=O)OCc1ccccc1	> 80000 nM (inactive)
COC1=CC(=O)[C@]2(C=C1OC)OC[C@@H]1Oc3c(ccc4c3C=CC(C)(C)O4)C(=O)[C@@H]12	47700 nM (inactive)
C=C1C(=O)O[C@@H]2C[C@@H](C)[C@@H]3C=CC(=O)[C@@]3(C)[C@@H](OC(=O)CC(=O)O[C@H]3[C@@H]4C(=C)C(=O)O[C@@H]4C[C@@H](C)[C@@H]4C=CC(=O)[C@]43C)[C@H]12	377 nM
COc1ccccc1C(=O)Nc1nc2ccccc2[nH]1	454 nM
C=CCn1c(C)cc(C(=O)CN2C(=O)c3ccccc3S2(=O)=O)c1C	656 nM
COc1cc2nc(NC(=O)c3ccccc3)sc(=O)c2cc1OC	444 nM
OCCCNc1nccc(-c2cc(Nc3cccc(Cl)c3)ncn2)n1	4100 nM
CC(C)c1ccc(-c2nnn(CCC(=O)O)n2)cc1	202 nM
O=C(NCCNCCO)C1(C(F)(F)F)C/C(=C\CCO)CCCO1 (centres undefined)	> 80000 nM (inactive)
COc1ccc(CCNc2ncnc3sccc23)cc1OC	77400 nM (inactive)
N=c1c2c(-c3ccccc3)c(-c3ccccc3)n(Cc3ccccc3)c2ncn1CCCn1ccnc1	32200 nM (inactive)
Cn1nc(CC(=O)Nc2ccc3c(c2)CCC3)c2ccccc2c1=O	> 80000 nM (inactive)
CC1(c2ccc3ccccc3c2)NC(=O)N(CC(=O)N2CCN(Cc3ccc(C#N)cc3)CC2)C1=O (centres undefined)	> 80000 nM (inactive)
COc1ccccc1C(=O)Nc1nc(-c2ccc(S(=O)(=O)N3CCOCC3)cc2)cs1	7170 nM
CCc1ccc(-c2nc(CS(=O)CC(=O)NCc3ccco3)c(C)o2)cc1 (centres undefined)	> 80000 nM (inactive)
CN(C)c1cc[n+](CC(=O)c2ccc(-c3ccccc3)cc2)cc1	47400 nM (inactive)
Cc1ccc(C(=O)Nc2cccc(C(F)(F)F)c2)cc1NC(=O)c1ccno1	4090 nM
Cc1ccc2nc(NC(=O)CCCC(=O)O)sc2c1	2130 nM

Structure (SMILES)	IC50
C#CC(=O)N(c1ccc(OC)c(OC)c1)C(C(=O)NC1CCCC1)c1cccs1 (centres undefined)	200 nM
CC(Nc1ncnc2sccc12)c1ccccc1 (centres undefined)	64400 nM (inactive)
Cn1nc(CC(=O)Nc2ccc3c(c2)OCCO3)c2ccccc2c1=O	68700 nM (inactive)
C#CC(=O)N(c1cccc(OC)c1)C(C(=O)NC1CCCC1)c1cccs1 (centres undefined)	219 nM
COc1cc(/C=N/NC(=S)Nc2cccc(C(=O)O)c2)ccc1O	15300 nM
CCOC(=O)C1CCCN(S(=O)(=O)c2ccc(S(=O)(=O)N(CC)CC)cc2)C1 (centres undefined)	> 80000 nM (inactive)
COc1cccc2c1C(CO)N1C(C#N)C3CC(C(=O)O)C(C1C2)N3C (centres undefined)	253 nM
Cn1nc(C(C)(C)C)cc1C(=O)NCc1ccc(N2CCCC2=O)cc1	> 80000 nM (inactive)
Cc1ccc(NC(=O)COc2ccc(N(C)C(=O)C(C)(C)C)cc2)cc1S(=O)(=O)N1CCCCC1	> 80000 nM (inactive)
CCN(CC)S(=O)(=O)c1ccc(Oc2ccc(S(=O)(=O)N(CC)CC)cc2)cc1	> 80000 nM (inactive)
COc1ccc(CN(C)c2ccc(S(=O)(=O)N3CCN(C)CC3)cc2[N+](=O)[O-])cc1OC	> 80000 nM (inactive)
CN(C)c1ccc(-c2n(C)c3ccccc3[n+]2C)cc1	> 80000 nM (inactive)
O=C(CN1C(=O)c2ccccc2S1(=O)=O)c1ccc2c(c1)OCCCO2	< 160 nM
COc1cc2c(cc1OC)[C@@H]1C(=O)c3ccc4c(c3O[C@@H]1CO2)C[C@H](C(C)C)O4	> 80000 nM (inactive)
CC1CCN(c2nc3ccc(C(=O)O)cc3s2)CC1	1330 nM
C[n+]1c(-c2ccccc2)c2cc(N)ccc2c2ccc(N)cc21	> 80000 nM (inactive)
CCCCCCCCNc1ncnc2ccccc12	> 80000 nM (inactive)
C[C@@H]1O[C@@H](O[C@@H]2C=C3CCC4C(CC[C@]5(C)[C@@H](c6ccc(=O)oc6)CC[C@]45O)[C@@]3(C)CC2)[C@H](O)[C@H](O)[C@H]1O (some centres undefined)	< 160 nM
CCCCCCCCCCCCn1ccc(=N)cc1	9190 nM
CC(=O)OC(C)(C)/C=C/C(=O)[C@](C)(O)C1[C@H](O)C[C@@]2(C)C3CC=C4C(C[C@H](O)C(=O)C4(C)C)[C@]3(C)C(=O)C[C@]12C (some centres undefined)	7020 nM
COc1cccc(NC(=O)Nc2cccc(C(=O)O)c2)c1	1620 nM
C#CC(=O)N(c1ccc(OC)cc1OC)C(C(=O)NC1CCCC1)c1cccs1 (centres undefined)	252 nM
O=C(Nc1ccc([N+](=O)[O-])cc1)C(=O)Nc1cccc(C(=O)O)c1	946 nM
CCn1c(C)cc(C(=O)COC(=O)c2ccccc2[N+](=O)[O-])c1C	< 160 nM
